From PubChem BioAssay AID1963445 (Molecular Pharmacology Branch, DTP, NCI, 2024)
Several values for one entry are separate records, joined by “and”; a condition that tells them apart may be missing. Identical values can stand only once. Blank lines part the entries; values can stand above or below the compound they belong to.

Tested on: MCF7 complex spheroid growth, % test/control
Assay: Anticancer human tumor MCF7 cell line growth inhibition [Asc];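 also: spheroids exposed to compounds for 7 days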;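 as to viability, T/C: 100% = DMSO vehicle control wells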
Conditions: for viability, T/C: stronger effect = lower value
In short: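 Spheroid model: tumor line + HUVEC + hMSC. Single agents and combinations; top conc. at/near clinical Cmax (10 microM if undetermined), half-log dilutions. DMSO stocks at 800-fold test concentration.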

[1] = curve of first compound, second compound 0.0316 µM
[2] = curve of first compound, second compound 0.1 µM
[3] = curve of first compound, second compound 0.316 µM
[4] = curve of first compound, second compound 1 µM
[5] = curve of first compound, second compound 3.16 µM
[6] = curve of first compound, second compound 10 µM
[7] = second compound 0.0316 µM, first compound 0.0316 µM
[8] = second compound 0.0316 µM, first compound 0.1 µM
[9] = second compound 0.0316 µM, first compound 0.316 µM
[10] = second compound 0.0316 µM, first compound 1 µM
[11] = second compound 0.0316 µM, first compound 3.16 µM
[12] = second compound 0.0316 µM, first compound 10 µM
[13] = second compound 0.1 µM, first compound 0.0316 µM
[14] = second compound 0.1 µM, first compound 0.1 µM
[15] = second compound 0.1 µM, first compound 0.316 µM
[16] = second compound 0.1 µM, first compound 1 µM
[17] = second compound 0.1 µM, first compound 3.16 µM
[18] = second compound 0.1 µM, first compound 10 µM
[19] = second compound 0.316 µM, first compound 0.0316 µM
[20] = second compound 0.316 µM, first compound 0.1 µM
[21] = second compound 0.316 µM, first compound 0.316 µM
[22] = second compound 0.316 µM, first compound 1 µM
[23] = second compound 0.316 µM, first compound 3.16 µM
[24] = second compound 0.316 µM, first compound 10 µM
[25] = second compound 1 µM, first compound 0.0316 µM
[26] = second compound 1 µM, first compound 0.1 µM
[27] = second compound 1 µM, first compound 0.316 µM
[28] = second compound 1 µM, first compound 1 µM
[29] = second compound 1 µM, first compound 3.16 µM
[30] = second compound 1 µM, first compound 10 µM
[31] = second compound 3.16 µM, first compound 0.0316 µM
[32] = second compound 3.16 µM, first compound 0.1 µM
[33] = second compound 3.16 µM, first compound 0.316 µM
[34] = second compound 3.16 µM, first compound 1 µM
[35] = second compound 3.16 µM, first compound 3.16 µM
[36] = second compound 3.16 µM, first compound 10 µM
[37] = second compound 10 µM, first compound 0.0316 µM
[38] = second compound 10 µM, first compound 0.1 µM
[39] = second compound 10 µM, first compound 0.316 µM
[40] = second compound 10 µM, first compound 1 µM
[41] = second compound 10 µM, first compound 3.16 µM
[42] = second compound 10 µM, first compound 10 µM
[43] = second compound 0.0316 µM, first compound 0.000316 µM
[44] = second compound 0.0316 µM, first compound 0.001 µM
[45] = second compound 0.0316 µM, first compound 0.00316 µM
[46] = second compound 0.0316 µM, first compound 0.01 µM
[47] = second compound 0.1 µM, first compound 0.000316 µM
[48] = second compound 0.1 µM, first compound 0.001 µM
[49] = second compound 0.1 µM, first compound 0.00316 µM
[50] = second compound 0.1 µM, first compound 0.01 µM
[51] = second compound 0.316 µM, first compound 0.000316 µM
[52] = second compound 0.316 µM, first compound 0.001 µM
[53] = second compound 0.316 µM, first compound 0.00316 µM
[54] = second compound 0.316 µM, first compound 0.01 µM
[55] = second compound 1 µM, first compound 0.000316 µM
[56] = second compound 1 µM, first compound 0.001 µM
[57] = second compound 1 µM, first compound 0.00316 µM
[58] = second compound 1 µM, first compound 0.01 µM

IC50 [1]: > 0.1 µM
IC50 [2]: > 0.1 µM
IC50 [3]: > 0.1 µM
IC50 [4]: > 0.1 µM
IC50 [5]: > 0.1 µM
IC50 [6]: > 0.1 µM
SMILES: NC1CCC(NC2CC2c2ccccc2)CC1 (stereo not given) + Cc1c(S(C)(=O)=O)c(-c2cc(F)cc(N3CCN(c4ccc(NS(=O)(=O)c5ccc(NC(CCN6CCC(C(=O)OCCCP(=O)(O)O)CC6)CSc6ccccc6)c(S(=O)(=O)C(F)(F)F)c5)cc4)CC3)c2)c(-c2ccc(Cl)cc2)n1C(C)C
viability, T/C [43]: 120%
viability, T/C [44]: 93.7%
viability, T/C [45]: 93.3%
viability, T/C [46]: 103%
viability, T/C [7]: 99.9%
viability, T/C [8]: 106%
viability, T/C [47]: 96.7%
viability, T/C [48]: 106%
viability, T/C [49]: 96.3%
viability, T/C [50]: 115%
viability, T/C [13]: 115%
viability, T/C [14]: 97.1%
viability, T/C [51]: 95.4%
viability, T/C [52]: 87.7%
viability, T/C [53]: 113%
viability, T/C [54]: 97.1%
viability, T/C [19]: 91.7%
viability, T/C [20]: 100%
viability, T/C [55]: 85.4%
viability, T/C [56]: 82.6%
viability, T/C [57]: 95%
viability, T/C [58]: 84.5%
viability, T/C [25]: 102%
viability, T/C [26]: 92.9%
viability, T/C (second compound 3.16 µM, first compound 0.000316 µM): 96.8%
viability, T/C (second compound 3.16 µM, first compound 0.001 µM): 83.8%
viability, T/C (second compound 3.16 µM, first compound 0.00316 µM): 87.5%
viability, T/C (second compound 3.16 µM, first compound 0.01 µM): 98.6%
viability, T/C [31]: 83.5%
viability, T/C [32]: 127%
viability, T/C (second compound 10 µM, first compound 0.000316 µM): 150%
viability, T/C (second compound 10 µM, first compound 0.001 µM): 195%
viability, T/C (second compound 10 µM, first compound 0.00316 µM): 149%
viability, T/C (second compound 10 µM, first compound 0.01 µM): 215%
viability, T/C [37]: 186%
viability, T/C [38]: 161%

IC50 (curve of first compound, second compound 0.00316 µM): < 0.000316 µM
IC50 (curve of first compound, second compound 0.01 µM): < 0.000316 µM
IC50 [1]: < 0.000316 µM
IC50 [2]: < 0.000316 µM
IC50 [3]: < 0.000316 µM
IC50 [4]: < 0.000316 µM
SMILES: NC1CCC(NC2CC2c2ccccc2)CC1 (stereo not given) + CNC(C)C(=O)NC1CN(S(=O)(=O)c2cccc(S(=O)(=O)N3CCC4CCC(C(=O)NC(c5ccccc5)c5ccccc5)N4C(=O)C(NC(=O)C(C)NC)C3)c2)CCC2CCC(C(=O)NC(c3ccccc3)c3ccccc3)N2C1=O
viability, T/C (second compound 0.00316 µM, first compound 0.000316 µM): 23.3%
viability, T/C (second compound 0.00316 µM, first compound 0.001 µM): 18.5%
viability, T/C (second compound 0.00316 µM, first compound 0.00316 µM): 16.4%
viability, T/C (second compound 0.00316 µM, first compound 0.01 µM): 21.6%
viability, T/C (second compound 0.00316 µM, first compound 0.0316 µM): 18.2%
viability, T/C (second compound 0.00316 µM, first compound 0.1 µM): 22.6%
viability, T/C (second compound 0.01 µM, first compound 0.000316 µM): 11.9%
viability, T/C (second compound 0.01 µM, first compound 0.001 µM): 12.3%
viability, T/C (second compound 0.01 µM, first compound 0.00316 µM): 12.2%
viability, T/C (second compound 0.01 µM, first compound 0.01 µM): 10.7%
viability, T/C (second compound 0.01 µM, first compound 0.0316 µM): 10.4%
viability, T/C (second compound 0.01 µM, first compound 0.1 µM): 10.8%
viability, T/C [43]: 11.2%
viability, T/C [44]: 9.92%
viability, T/C [45]: 10.8%
viability, T/C [46]: 10.2%
viability, T/C [7]: 10.9%
viability, T/C [8]: 11.9%
viability, T/C [47]: 13.9%
viability, T/C [48]: 12.6%
viability, T/C [49]: 12.5%
viability, T/C [50]: 10.5%
viability, T/C [13]: 13.6%
viability, T/C [14]: 13.8%
viability, T/C [51]: 11.4%
viability, T/C [52]: 16.8%
viability, T/C [53]: 16.9%
viability, T/C [54]: 15.8%
viability, T/C [19]: 12%
viability, T/C [20]: 14.2%
viability, T/C [55]: 13.1%
viability, T/C [56]: 12.3%
viability, T/C [57]: 13.9%
viability, T/C [58]: 15.8%
viability, T/C [25]: 15%
viability, T/C [26]: 10.2%

More lines, now with the values behind:

SMILES: O=C(c1cc(Cc2n[nH]c(=O)c3ccccc23)ccc1F)N1CCN(C(=O)C2CC2)CC1 + Cc1c(S(C)(=O)=O)c(-c2cc(F)cc(N3CCN(c4ccc(NS(=O)(=O)c5ccc(NC(CCN6CCC(C(=O)OCCCP(=O)(O)O)CC6)CSc6ccccc6)c(S(=O)(=O)C(F)(F)F)c5)cc4)CC3)c2)c(-c2ccc(Cl)cc2)n1C(C)C
IC50 [1]: > 10 µM
IC50 [2]: > 10 µM
IC50 [3]: > 10 µM
IC50 [4]: 8.02 µM
IC50 [5]: 7.13 µM
IC50 [6]: 8.47 µM
viability, T/C [7]: 95.8%
viability, T/C [8]: 99.9%
viability, T/C [9]: 118%
viability, T/C [10]: 95.9%
viability, T/C [11]: 80.5%
viability, T/C [12]: 54.3%
viability, T/C [13]: 117%
viability, T/C [14]: 99.8%
viability, T/C [15]: 87%
viability, T/C [16]: 99.4%
viability, T/C [17]: 84.5%
viability, T/C [18]: 57.6%
viability, T/C [19]: 117%
viability, T/C [20]: 109%
viability, T/C [21]: 101%
viability, T/C [22]: 93.7%
viability, T/C [23]: 72.8%
viability, T/C [24]: 52.5%
viability, T/C [25]: 119%
viability, T/C [26]: 107%
viability, T/C [27]: 91.9%
viability, T/C [28]: 105%
viability, T/C [29]: 88.9%
viability, T/C [30]: 40.4%
viability, T/C [31]: 108%
viability, T/C [32]: 72.5%
viability, T/C [33]: 79.1%
viability, T/C [34]: 93.6%
viability, T/C [35]: 68.2%
viability, T/C [36]: 42.4%
viability, T/C [37]: 82.6%
viability, T/C [38]: 84.4%
viability, T/C [39]: 74.6%
viability, T/C [40]: 86.9%
viability, T/C [41]: 76.3%
viability, T/C [42]: 45.4%

SMILES: C#Cc1c(F)ccc2cc(O)cc(-c3ncc4c(N5CC6CCC(C5)N6)nc(OCC56CCCN5CC(F)C6)nc4c3F)c12 (stereo not given) + Cc1c(S(C)(=O)=O)c(-c2cc(F)cc(N3CCN(c4ccc(NS(=O)(=O)c5ccc(NC(CCN6CCC(C(=O)OCCCP(=O)(O)O)CC6)CSc6ccccc6)c(S(=O)(=O)C(F)(F)F)c5)cc4)CC3)c2)c(-c2ccc(Cl)cc2)n1C(C)C
IC50 [1]: > 10 µM
IC50 [2]: > 10 µM
IC50 [3]: > 10 µM
IC50 [4]: > 10 µM
IC50 [5]: > 10 µM
IC50 [6]: > 10 µM
viability, T/C [7]: 96.2%
viability, T/C [8]: 90%
viability, T/C [9]: 89.6%
viability, T/C [10]: 92.3%
viability, T/C [11]: 98.4%
viability, T/C [12]: 91.8%
viability, T/C [13]: 104%
viability, T/C [14]: 103%
viability, T/C [15]: 87.5%
viability, T/C [16]: 84.1%
viability, T/C [17]: 83.4%
viability, T/C [18]: 82.5%
viability, T/C [19]: 91%
viability, T/C [20]: 83%
viability, T/C [21]: 73.7%
viability, T/C [22]: 86.7%
viability, T/C [23]: 88.6%
viability, T/C [24]: 86.5%
viability, T/C [25]: 86%
viability, T/C [26]: 95.9%
viability, T/C [27]: 81.9%
viability, T/C [28]: 82.6%
viability, T/C [29]: 79%
viability, T/C [30]: 85.7%
viability, T/C [31]: 80.3%
viability, T/C [32]: 77.7%
viability, T/C [33]: 88.7%
viability, T/C [34]: 72.5%
viability, T/C [35]: 74.1%
viability, T/C [36]: 80.5%
viability, T/C [37]: 272%
viability, T/C [38]: 226%
viability, T/C [39]: 251%
viability, T/C [40]: 292%
viability, T/C [41]: 249%
viability, T/C [42]: 196%

SMILES: C=CC(=O)N1CCN(c2nc(=O)n(-c3c(C)ccnc3C(C)C)c3nc(-c4c(O)cccc4F)c(F)cc23)C(C)C1 (stereo not given)
viability, T/C (compound 0.0316 µM): 92.7% and 99.7% and 107%
viability, T/C (compound 0.1 µM): 90.9% and 101% and 93.8%
viability, T/C (compound 0.316 µM): 85.3% and 99.8% and 90.6%
viability, T/C (compound 1 µM): 91.7% and 121% and 102%
viability, T/C (compound 3.16 µM): 81.7% and 103% and 114%
viability, T/C (compound 10 µM): 75% and 76.2% and 103%
IC50 (curve of compound): > 10 µM
